Measurements published in patent US20090226956A1, “RUNX-MEDIATED ACTION OF NUCLEAR RECEPTORS AND UTILITIES THEREOF” (University of Southern California, priority 2008, published 2009).

Columns and labels:
Runx2 in SaOS-2 cells = settings: DHT 24 hrs
Description: Data are representative of at least three independent experiments.
(§6) Transient transfection, luciferase, co-IP and ChIP—These assays were performed essentially as previously described (34, 51).

Runx1 = settings: COS7, 6XOSE2-luc (FIG. 25)
Description: The ability of sex steroids and their receptors to repress Runx1 was determined by transient transfection assays of COS7 cells as described earlier for Runx2.
We tested the effects of ERαX, ERβ, AR and GR on Runx1 activity using the same assay employed for Runx2.

[1] = tested on: Runx2 occupancy of the endogenous OSE2 site; settings: Day-9 MC3T3-E1, DHT four hours, ChIP
Description: Occupancy was quantified by qPCR of an OC promoter fragment containing the OSE2 site or a fragment of the insulin promoter as control.
To test whether the DNA-binding exclusion model operates in vivo, we investigated whether AR interferes with binding of Runx2 to its chromatin-embedded OSE2 element at the OC promoter in MC3T3-E1 cells.
A slight modification was introduced for immunoprecipitation using MC3T3-E1 and PC3-AR cells. These cells were plated in a 150 mm dish in phenol-red free media supplemented with 5% CSS. The MC3T3-E1 cell culture medium was further supplemented, commencing at confluence, with 50 μg/ml ascorbic acid and 150 mM β-glycerophosphate.

[2] = tested on: endogenous Runx2 in PC3-AR cells; settings: DHT 24 hrs; not in PC3-GFP cells
Description: B. PC3 cell that had been stably transduced with lentiviruses encoding AR or GFP were transiently transfected with the MMTV-Luc (left) or 6XOSE2-Luc (middle) reportersk, followed by luciferase assay, or, they were subjected to RT-qPCR analysis of the OC gene (right). […] Mean±SEM, n=4.
To study the influence of AR on Runx2 activity and on the Runx2 target gene OC in PCa cells, AR was first stably introduced into PC3 cells by retroviral infection. The transduced cells, designated PC3-AR, presumably resemble PCa cells that endogenously express both Runx2 and wild type AR. These cells were transiently transfected with the MMTV-Luc or the 6XOSE2-Luc reporter plasmid. PC3-GFP cells, transduced with a GFP-encoding retrovirus, were used as control.
Quantitative real time RT-PCR—Total RNA was isolated using Aurum Total RNA® kit (Bio-Rad, Hercules, Calif.) following the manufacturer's recommendations. One microgram of total RNA was reverse-transcribed using the Superscript III kit (Invitrogen) and the cDNA was subjected to real-time PCR amplification (RTqPCR) using iQ™ SYBR Green Supermix (Bio-Rad).

[3] = tested on: endogenous Runx proteins in PC3 cells; settings: 6XOSE2-luciferase, 10 nM DHT
Description: Interaction between AR and Runx proteins in PC3 cells that express endogenous Runx proteins. A. EMSA assessing Runx protein activity using an OSE2 ^32P-labeled probe. Whole cell extracts from PC3 cells were shifted and supershifted with Runx1 and Runx2 antibodies respectively and successfully competed with WT 10× and 100×OSE2 unlabeled probe. […] Confocal of endogenous Runx (fluorescein) proteins and AR (rhodamine) under transfected or untransfected AR conditions.

Runx2 [4] = experiment: 6XOSE2-Luc Runx2 reporter luciferase assay, COS7 cells transfected with Runx2 and AR; format: cell-based, human
Description: As COS7 cells were transiently transfected in 96 well format with the Runx2 reporter 6XOSE2-Luc (firefly luciferase) along with expression vectors encoding human Runx2, AR, and GR as indicated. […] B. Parallel sets of COS7 cell cultures were transfected with either the AR reporter MMTV-Luc or the Runx2 reporter 6XOSE-Luc, along with 1 ng each of AR and Runx2 expression plasmids. […] Bar graphs represent luciferase assays, in which the reporters OSE2-Luc (left panel) and MMTV-Luc (right panel), were transfected with expression plasmids encoding wild type AR (WT) or a mutant AR lacking the AF1 domain (ΔAF1) as indicated.
We examined the effect of AR on the transcriptional potential of Runx2 using transient transfection reporter assays COS7 cells, which express neither transcription factor, were transfected with plasmids encoding Runx2 and AR, along with the 6XOSE2-Luc reporter, in which luciferase is controlled by six copies of the OSE2 Runx2 binding site (53).
Since AR is a potent transcription factor, we investigated if its transactivation function was required for repressing Runx2. […] MMTV-Luc and 6XOSE2-Luc were used as reporters for monitoring the transactivation and Runx2 repression functions of AR, respectively, with equal amounts of each of AR and Runx2 expression plasmids co-transfected in both assays.
Unless otherwise stated, these hormones were applied at a final concentration of 10 nM in 0.001% ethanol as the vehicle.
as §6

Runx2 [5] = experiment: 6XOSE2-luc Runx2 reporter luciferase assay, COS7 cells transfected with Runx2 and ERα; format: cell-based, human
Description: (§1) FIG. 1. ERα inhibits Runx2. (A,B) COS7 cells were transiently transfected with the Runx reporter 6XOSE2-luc (firefly) along with expression vectors encoding human Runx2 (A), Runx1 (B), ERα, and/or ERβ as indicated. […] In each experiment, the firefly luciferase results were corrected for the expression of a co-transfected CMV-renilla luciferase construct (internal control), except for Panel A, where the renilla luciferase values are shown in the inset graph. […] All data are presented as mean values±SEM, with n=4 dish replicates of a representative experiment, repeated at least 3 times.
(§2) FIG. 6. Various effects of SERM-bound ERα on Runx2. […] (B, C) COS7 cells were transfected with Runx2 and its 6XOSE2-luc reporter (B), or with ERE-luc (C) along with expression vectors coding for the indicated ER isoforms or fragments. […] All data are presented as mean values±SEM, with n=4 dish replicates of a representative experiment, repeated at least 3 times.
(§3) Cells were seeded at a density of 10,000 per well in 96-well plates and grown in 5% charcoal-stripped serum (CSS)-containing phenol red-free medium for 24 h. The indicated plasmids (50 ng reporter, 52 ng total) were transfected using ‘LTX and Plus reagent’ according to manufacture's specification (Invitrogen, Carlsbad, Calif.). Equimolar amounts of the empty vectors pcDNA 3.1 and pSG5 were used as controls, and the pCAT-basic promoter-less plasmid was used as ‘filler’ DNA. Under these conditions the total amounts of promoter equivalents (molar) and DNA mass (ng) were the same in all wells of a particular experiment. As an internal control, 0.01 ng of tk-Renilla-luc or CMV-renilla-luc (Promega, Madison, Wis.) was used for correction of transfection efficiency. Cells were subsequently treated with vehicle (EtOH, 0.01%) or the indicated ligands for 24 h. Luciferase activity was determined using the dual-assay luciferase kit (Promega, Madison, Wis.).
COS7 cells were transiently transfected with the indicated expression vectors along with a reporter for either Runx2 (6XOSE2-luciferase) or the classical transcriptional activation activity of ER (ERE-luciferase).

Runx2 [6] = experiment: 6XOSE2-luc Runx2 reporter luciferase assay, COS7 cells transfected with Runx2 and ERβ; format: cell-based, human; settings: COS7, 6XOSE2-luc, 10 nM, 24 h
Description: as §1
as §3, with “As an internal control, 0.01 ng of tk-Renilla-luc or CMV-renilla-luc (Promega, Madison, Wis.) was used for correction of transfection efficiency. Cells were subsequently treated with vehicle (EtOH, 0.01%) or the indicated ligands for 24 h.” left out

Runx2 in T47D cells = experiment: 6XOSE2-luc Runx2 reporter assay in T47D breast cancer cells; format: cell-based, human; settings: 100 nM
Description: as §2
(§4) COS7 cells were maintained in Dulbeco Modified Eagle Medium (DMEM) and 5% fetal bovine serum (FBS). The mouse osteoblastic cell line MC3T3-E1 was maintained in α-MEM and 10% FBS. Runx-reporter osteoblasts were generated by stable transfection of MC3T3-E1 cells with the 6XOSE2-luc reporter construct using the calcium phosphate coprecipitation method and hygromycin ([…]) as the selection drug. Resistance to hygromycin was conferred by cotransfection of the pCEP plasmid (1:15 molar ratio). To support development of the osteoblast phenotype, cells were treated with 50 μg/ml ascorbic acid and […] β-glycerophosphate commencing at confluence. The human breast cancer cell lines MDA-MB-231, T47D, and MCF7 were maintained in DMEM and 5% FBS.
(§5) Cells were seeded at a density of 10,000 per well in 96-well plates and grown in 5% charcoal-stripped serum (CSS)-containing phenol red-free medium for 24 h. […] Luciferase activity was determined using the dual-assay luciferase kit (Promega, Madison, Wis.).

Runx2 in MCF7 cells = experiment: 6XOSE2-luc Runx2 reporter assay in MCF7 breast cancer cells; format: cell-based, human; settings: 100 nM
Description: as §2, §4, §5

ERα/Runx2 complexes = ERα/Runx2 complexes (Homo sapiens, UniProt P03372); settings: COS7; E2 10 nM, OHT 100 nM, ICI 182780 100 nM; 24 h
ERα/Runx2 complexes, sequence (Q13950 1-507 isoform Q13950-2 partner, one chain of several): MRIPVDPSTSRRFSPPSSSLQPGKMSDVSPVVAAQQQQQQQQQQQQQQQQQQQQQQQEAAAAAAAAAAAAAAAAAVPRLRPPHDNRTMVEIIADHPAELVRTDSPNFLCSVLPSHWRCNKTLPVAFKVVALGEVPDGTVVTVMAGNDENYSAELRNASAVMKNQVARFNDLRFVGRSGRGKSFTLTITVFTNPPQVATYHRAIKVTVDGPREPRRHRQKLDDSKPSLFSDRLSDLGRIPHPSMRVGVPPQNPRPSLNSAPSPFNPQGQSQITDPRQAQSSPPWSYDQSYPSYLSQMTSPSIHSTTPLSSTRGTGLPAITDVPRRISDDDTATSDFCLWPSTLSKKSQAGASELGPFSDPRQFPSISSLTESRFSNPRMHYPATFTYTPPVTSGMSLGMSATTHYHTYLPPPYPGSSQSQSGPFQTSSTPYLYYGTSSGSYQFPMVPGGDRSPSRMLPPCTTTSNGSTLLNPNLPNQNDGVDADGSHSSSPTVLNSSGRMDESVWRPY
Description: Cells were seeded at a density of 300,000 per well in six-well plates and grown in 5% CSS-containing phenol red-free medium for 24 h. Cells were transfected when indicated, and 24 h later they were lysed in a 50 mM Tris-HCl buffer (pH 7.4) containing 150 mM NaCl, 1 mM EDTA, 1% Triton X-100, and fresh Protease Inhibitors Cocktail (1%; Sigma, St. Louis, Mo.). […] The remaining lysate was immunoprecipitated with approximately 3 μg of the specified antibody and 30 μl Protein-G beads (Amersham Biosciences Freiburg, Germany) and washed three times for 5 min each with the same buffer, followed by centrifugation at 4,000 rpm for 1 min. […] Input and immunoprecipitates were analyzed by Western blot analysis.

ERα = biological target: T1, ERα (Homo sapiens, UniProt P03372); experiment: ERE-luc ER reporter luciferase assay in COS7 cells; format: cell-based; settings: 100 nM (FIG. 6C)
T1 sequence (P03372 1-595): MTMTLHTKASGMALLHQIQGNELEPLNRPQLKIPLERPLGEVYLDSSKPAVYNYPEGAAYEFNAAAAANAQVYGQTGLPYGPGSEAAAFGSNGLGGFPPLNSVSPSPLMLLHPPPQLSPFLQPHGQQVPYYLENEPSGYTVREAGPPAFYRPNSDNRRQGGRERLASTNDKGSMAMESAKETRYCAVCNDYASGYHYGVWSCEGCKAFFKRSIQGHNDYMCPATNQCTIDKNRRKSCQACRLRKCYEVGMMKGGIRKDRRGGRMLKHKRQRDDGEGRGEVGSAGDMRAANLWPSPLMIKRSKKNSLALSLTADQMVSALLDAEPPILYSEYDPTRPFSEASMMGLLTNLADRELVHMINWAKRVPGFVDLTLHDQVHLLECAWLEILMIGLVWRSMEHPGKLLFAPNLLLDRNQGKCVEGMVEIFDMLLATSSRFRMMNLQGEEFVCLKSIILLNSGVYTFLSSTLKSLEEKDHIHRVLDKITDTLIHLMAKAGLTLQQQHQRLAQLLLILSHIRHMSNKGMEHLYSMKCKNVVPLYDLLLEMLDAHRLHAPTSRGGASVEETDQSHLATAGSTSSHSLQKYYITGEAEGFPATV

[7] = tested on: Runx2 in MDA-MB-231 cells; experiment: 6XOSE2-luc Runx2 reporter assay in MDA-MB-231 breast cancer cells expressing ERα; format: cell-based, human; settings: ERα expressed; E2 10 nM, OHT 100 nM, ICI 182780 100 nM
Description: as §2, §4, §5

Runx2 [8] = settings: same cells as Raloxifene; cited from earlier work
AR DBD = AR DBD (Homo sapiens, UniProt P10275 P10275:540-647); experiment: EMSA; GST-AR-DBD alone forms no complex with OSE2; settings: tags: GST fusion, E. coli BL21(DE3); label: 32P
AR DBD, sequence (P10275 540-647, one chain of several): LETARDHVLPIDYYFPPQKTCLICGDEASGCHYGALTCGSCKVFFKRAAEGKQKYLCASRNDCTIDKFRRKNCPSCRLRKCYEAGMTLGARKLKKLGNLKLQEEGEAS
Description: Where indicated, the binding reaction also contained purified GST, GST-AR-DBD, GST-AR-DBD^A573D (see FIG. 14G), or anti-Runx2 specific antibodies, either native (n) or denaturated by boiling (b). […] Arrow indicates Runx2/OSE2 complex.
The source for Runx2 was MC3T3-E1 cell extract and recombinant GST-AR-DBD was purified from E. coli.

[9] = COS7, 6XOSE2-Luc, 10 nM, 24 hrs

Description for MC3T3-E1 cells: Staining with 4′,6-diamidino-2-phenylindole (DAPI) demarcates the cell nucleus.
A sub-line that had been stably transfected with the 6XOSE2-Luc reporter (51) was employed to simultaneously test the influence of AR on pure Runx2 activity (luciferase) and on OC gene expression.
Confocal immunofluorescence microscopy—Cells were grown on 18 mm^2 cover-slips in 6-well plates for 24 hrs in growth medium with CSS. […] Cells were mounted using Vectashield Hard Set mounting medium with DAPI (Burlingame, Calif.) and viewed using an LSM 510 Zeiss confocal microscope at 60× magnification. Images were processed using the software program Image J.

## C[C@]12CCC(=O)C[C@@H]1CC[C@@H]1[C@@H]2CC[C@]2(C)[C@@H](O)CC[C@@H]12 [DHT, dihydrotestosterone]
Runx2 in SaOS-2 cells
  6XOSE2-Luc luciferase activity in SaOS-2 cells: inhibited luciferase activity
MC3T3-E1 cells; MC3T3-E1, DHT chronically since confluence or 24 hrs prior to harvest
  Expression of both 6XOSE2-Luc and OC on day 9: strongly inhibited
MC3T3-E1 cells; immunofluorescence, day 1 and day 9, DHT 24 hrs
  AR protein levels in early and late MC3T3-E1 cultures: strongly induced
Runx1
  Effect of AR+DHT on Runx1 activity: robustly inhibited
[1]
  Decrease of Runx2 occupancy of the endogenous OSE2 site: 2.4 fold
[2]
  6XOSE2-Luc reporter activity in PC3-AR cells: strong repression
  OC expression (RT-qPCR) in PC3-AR cells: strongly inhibited
[3]
  Endogenous Runx-mediated activity in PC3 cells with transfected AR: also inhibited
Runx2 [4]; [9]
  Effect on Runx2 activity in the absence of AR: did not affect
  Effect on Runx2 activity in the presence of AR: repressed Runx2 activity to basal levels
Runx2 [4]; COS7, 6XOSE2-Luc, DHT 10 nM
  Effect on Runx2 activity in the presence of GR: did not alter

## C[C@]12CC[C@@H]3c4ccc(O)cc4CC[C@H]3[C@@H]1CC[C@@H]2O [E2, estradiol]
Runx2 [5]; COS7, 6XOSE2-luc, in the presence of ERα, E2 10 nM, 24 h (FIG. 1A)
  Inhibition of Runx2 activity: 76%
Runx2 [6]
  Effect on Runx2 activity in the presence of ERβ: did not inhibit

## C[C@]12CC[C@@H]3c4ccc(O)cc4C[C@@H](CCCCCCCCC[S+]([O-])CCCC(F)(F)C(F)(F)F)[C@H]3[C@@H]1CC[C@@H]2O (stereo partly shown) [ICI 182780]
Runx2 [5]; COS7, 6XOSE2-luc, ERα, ICI 182780 100 nM, 24 h (FIG. 6B)
  Stimulation of Runx2 activity: 3.1 fold
Runx2 in T47D cells
  Effect on Runx2 in T47D cells: slightly stimulated
Runx2 in MCF7 cells
  Effect on Runx2 in MCF7 cells: slightly stimulated
ERα/Runx2 complexes
  ERα/Runx2 interaction in co-IP (formation of ERα/Runx2 complexes): strongly induced
ERα
  Partial agonist effect on an ERE-containing template: weak
[7]
  Effect on 6XOSE2 Runx2 reporter in MDA-MB-231 cells: slight if any inhibitory effect

## CC(=O)O[C@]1(C(C)=O)CC[C@H]2[C@@H]3C[C@H](C)C4=CC(=O)CC[C@]4(C)[C@H]3CC[C@@]21C [MPA]
Runx2 [4]; COS7, 6XOSE2-luciferase, Runx2 and Runx1 (FIG. 21)
  Effect of MPA-stimulated AR on Runx activities: inhibited Runx activities

## CC/C(=C(\c1ccc(O)cc1)c1ccc(OCCN(C)C)cc1)c1ccccc1 [OHT, hydroxytamoxifen]
Runx2 [5]; COS7, 6XOSE2-luc, ERαDBD-LBD fragment, 100 nM
  Effect on Runx2 when bound to the ERαDBD-LBD: stimulatory effect
Runx2 [5]; COS7, 6XOSE2-luc, full-length ERα, 100 nM, 24 h
  Effect on Runx2 activity: slightly inhibited
Runx2 in T47D cells
  Effect on Runx2 in T47D cells: uniformly inhibitory
Runx2 in MCF7 cells
  Effect on Runx2 in MCF7 cells: uniformly inhibitory
[7]
  Effect on 6XOSE2 Runx2 reporter in MDA-MB-231 cells: as strongly as E2

## O=C(c1ccc(OCCN2CCCCC2)cc1)c1c(-c2ccc(O)cc2)sc2cc(O)ccc12 [Raloxifene]
Runx2 [5]; 6XOSE2-luciferase, 100 nM Raloxifene, 24 hrs
  Effect on Runx2 activity in COS7 cells (Example V): small effect is stimulatory

## CC/C(=C(\c1ccccc1)c1ccc(OCCN(C)C)cc1)c1ccccc1 [Tamoxifene]
Runx2 [8]
  Effect on Runx2 activity in COS7 cells (Khalid et al., 2008, FIG. 6B): small inhibitory effect

B1: OSE2 probe (dsDNA)
DNA 1: AGCTGCAATCACCAACCACAGCA
DNA 2: TGCTGTGGTTGGTGATTGCAGCT
AR DBD
  binding result: no binding
